# Experimental data from patent US12710369B2, “Optical real-time biosensor” (CZ Biohub SF, LLC, priority 2018, dated 2026).
# Assays:
# serotonin aptamers [1] = assay: real-time measurement with one-color optical biosensor system, fiber-tethered signal-off serotonin aptamer switch; assay type: binding; conditions: specificity of 5-HT signal-off aptamer optical probe towards other molecules
# Source text: In some embodiments, the optical biosensor system was used to measure other molecules, such as dopamine (DA) and serotonin ([…]). The aptamers for DA and 5-TH are converted into aptamer-switches. (See, e.g., Nakatsuka et al., Aptamer-field-effect Transistors Overcome Debye Length Limitations for Small-molecule Sensing, Science 362: 319-324 (2018).) Higher sensitivity and better photostability were achieved through improvements in detector alignment.
# To evaluate the performance of the optical biosensor system in a biological matrix, spiked concentration of 5-HT and DA in an artificial cerebrospinal fluid (aCSF) or a cerebrospinal fluid (CSF), and in brain slices mediums were measured using a one-color optical biosensor system.
# The optical biosensor system 2400 includes a laser source 2410, an optical beam splitter 2420, and a detector 2430. The optical biosensor system 2400 may include an optional battery for providing power to the laser source 2410 and the detector 2430. […]
# Molecular switches (not shown) are attached to the second end 2466 of the optical waveguide 2462. […] When target molecules, such as dopamine or serotonin, bind to the molecular switches, the molecular switches may emit fluorescence light. The fluorescence light may have a second wavelength that is longer than the first wavelength of the excitation light. The emitted fluorescence light may be coupled back into the optical waveguide 2462 through the second end 2466 and be propagated through the optical waveguide 2462 to be emitted from the first end 2464.
# The fluorescence light emitted from the […] of the optical waveguide 2462 may be collimated by the lens 2440 and incident on the optical beam splitter 2420. The optical beam splitter 2420 is configured to transmit the fluorescence light. In some embodiments, the optical beam splitter 2420 may be a dichroic beam splitter configured to have a high reflectance value for the first wavelength of the excitation light, and a high transmittance value for the second wavelength of the fluorescence light. […]
# serotonin aptamers [2] = assay: specificity test of the aptamers: MDMA spiked in control sample in the absence of brain slice (rig bath); assay type: binding; conditions: excess of MDMA (30 μM), no brain slice, oxygenated aCSF 37° C., 3 ml/min
# Method: The stability of the fluorescence signal over time is characterized in a bath system (rig) under the appropriate conditions favorable for live brain slice measurements. This includes keeping the temperature of the bath at 37° C., with oxygenated artificial CSF (aCSF) flown in the chamber at a rate of 3 ml/min. A stable fluorescence signal (counts) was observed over tens of minutes under continuous laser excitation, which confirmed the robustness of the aptamers, fluorophores and the surface under such conditions. To test the specificity of the aptamers, an excess of MDMA (30 μM) was spiked in a control sample in the absence of brain slice.
# [3] = tested on: live brain slices (nucleus accumbens); assay: optical fiber sensor in live brain slices, endogenous release of serotonin upon MDMA stimulation; assay type: cell-based, mouse; parameters: dose or concentration left out as unconfirmed; conditions: following infusion of MDMA for 10 minutes; 532 nm excitation; NAc
# Source text: According to some embodiments, to measure endogenous release of DA and 5-HT upon drug (MDMA) stimulation with the optical biosensor in live brain slices, a rig system and a brain slice recording chamber are installed in a lab with all the necessary components, including: a gravity-perfusion system alimented by peristatic pump, temperature controller, oxygen lines, microscope, camera and micro-stage. It was noted that black curtains covering the entire rig system were necessary to minimize the background and fluctuations from room-light.
# Initially, the optical fiber was successfully inserted in a brain slice without compromising or breaking the micron-size tip of the optical fiber. However, due to mechanical contact, the fluorescence signal was mostly lost during the insertion process. Subsequently, the fiber was protected by a capillary tube from mechanical breakage during the transfer processes onto the rig holder and bath. […]
# After confirming the sensitivity, robustness, and specificity of the aptamer sensor in the rig system, test measurements were performed with live brain slices. […] After approximately 10 minutes of baseline measurements (aCSF) to determine the stability of the fluorescence signal in the brain environment over time and estimate the photobleaching rate, drug infusion at […] was started for 10 minutes. […]
smiles,measurement,setting,value
O=C(O)Cc1c[nH]c2ccc(O)cc12 [5-hydroxyindoleacetic acid],sensor responses (fluorescence signal),serotonin aptamers [1],negligible
CNC[C@H](O)c1ccc(O)c(O)c1 [epinephrine],sensor responses (fluorescence signal),serotonin aptamers [1],negligible
CNC(C)Cc1ccc2c(c1)OCO2 (centres unmarked) [MDMA],change in the fluorescence signal,serotonin aptamers [2],Minimal change
same,"fluorescence intensity, red channel (Cy5) and green channel (Cy3)",[3],clear drop in the fluorescence intensity
NCCc1ccc(O)c(O)c1 [dopamine],sensor responses (fluorescence signal),serotonin aptamers [1],negligible
